Results taken from patent US8729089B2 (Gilead Sciences, Inc., priority 2006, dated 2014).

What was measured:
[1] = CC50 assay (CellTiter-Glo) in Huh-7 HCV replicon cells; assay type: cell-based, human; conditions: human, 3 days incubation, CellTiter-Glo readout
Method in brief: (§1)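 Cytotoxicity (CC50) measured by CellTiter-Glo and antiviral activity (EC50) by luciferase signal from lysed cells, both by luminescence. Replicon-bearing Huh-7 cells, 6000 per well, incubated 3 days at 37 °C with threefold-diluted compound (0.5% DMSO for DMSO-dissolved compounds).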

[2] = system: HCV replicon in human hepatoma Huh-7 cell line; experiment: Anti-HCV replicon assay (EC50, luciferase); assay type: cell-based; conditions: Hepatitis C virus, Huh-7, 72 h
Method in brief: as §1

Row | SMILES | CC50 at 3 days [1] | EC50 [2]
1 | C[C@H](N)C(=O)Nc1ccc(-c2ccc3nc(NCc4ccc(S(N)(=O)=O)cc4)nc(NCC(F)(F)F)c3n2)cc1F [Example 216, 2-Amino-N-{2-fluoro-4-[2-(4-sulfamoyl-benzylamino)-4-(2,2,2-trifluoro-ethylamino)-pyrido[3,2-d]pyrimidin-6-yl]-phenyl}-propionamide] | < 5 µM | < 0.1 µM
2 | NS(=O)(=O)c1ccc(CNc2nc(NCC(F)(F)F)c3nc(-c4ccc(F)c(S(=O)(=O)N5CCNCC5)c4)ccc3n2)cc1 [Example 217, 4-{[6-[4-Fluoro-3-(piperazine-1-sulfonyl)-phenyl]-4-(2,2,2-trifluoro-ethylamino)-pyrido[3,2-d]pyrimidin-2-ylamino]-methyl}-benzenesulfonamide] | < 5 µM | < 0.1 µM
3 | CC(C)(C)OC(=O)N1CCN(S(=O)(=O)c2cc(-c3ccc4nc(NCc5ccc(S(N)(=O)=O)cc5)nc(NCC(F)(F)F)c4n3)ccc2F)CC1 [Example 218, 4-{2-Fluoro-5-[2-(4-sulfamoyl-benzylamino)-4-(2,2,2-trifluoro-ethylamino)-pyrido[3,2-d]pyrimidin-6-yl]-benzenesulfonyl}-piperazine-1-carboxylic acid tert-butyl ester] | 5 to 25 µM | < 0.1 µM
4 | NS(=O)(=O)c1ccc(CNc2nc(NCC(F)(F)F)c3nc(-c4ccc(NC(=O)[C@H]5CCNC5)c(F)c4)ccc3n2)cc1 [Example 219, Pyrrolidine-3-carboxylic acid {2-fluoro-4-[2-(4-sulfamoyl-benzylamino)-4-(2,2,2-trifluoro-ethylamino)-pyrido[3,2-d]pyrimidin-6-yl]-phenyl}-amide] | < 5 µM | < 0.1 µM
5 | C[C@@H](O)C(=O)Nc1ccc(-c2ccc3nc(NCc4ccc(S(N)(=O)=O)cc4)nc(NCC(F)(F)F)c3n2)cc1 [Example 220, 2-Hydroxy-N-{4-[2-(4-sulfamoyl-benzylamino)-4-(2,2,2-trifluoro-ethylamino)-pyrido[3,2-d]pyrimidin-6-yl]-phenyl}-propionamide] | 5 to 25 µM | < 0.1 µM
6 | C[C@H](N)C(=O)Nc1ccc(-c2ccc3nc(NCc4ccc(S(N)(=O)=O)cc4)nc(NCC(F)(F)F)c3n2)cc1 [Example 221, 2-Amino-N-{4-[2-(4-sulfamoyl-benzylamino)-4-(2,2,2-trifluoro-ethylamino)-pyrido[3,2-d]pyrimidin-6-yl]-phenyl}-propionamide] | > 25 µM | < 0.1 µM
7 | NS(=O)(=O)c1ccc(CNc2nc(NCC(F)(F)F)c3nc(-c4ccc(NC(=O)[C@H]5CCNC5)cc4)ccc3n2)cc1 [Example 222, Pyrrolidine-3-carboxylic acid {4-[2-(4-sulfamoyl-benzylamino)-4-(2,2,2-trifluoro-ethylamino)-pyrido[3,2-d]pyrimidin-6-yl]-phenyl}-amide] | 5 to 25 µM | < 0.1 µM
8 | NS(=O)(=O)c1ccc(CNc2nc(NCC(F)(F)F)c3nc(-c4ccc(NC(=O)OCCN5CCCC5)cc4)ccc3n2)cc1 [Example 223, {4-[2-(4-Sulfamoyl-benzylamino)-4-(2,2,2-trifluoro-ethylamino)-pyrido[3,2-d]pyrimidin-6-yl]-phenyl}-carbamic acid 2-pyrrolidin-1-yl-ethyl ester] | 5 to 25 µM | < 0.1 µM
9 | NS(=O)(=O)c1cc(-c2ccc3nc(NCc4ccc(F)cc4)nc(NCC(F)(F)F)c3n2)ccc1F [Example 224, 2-Fluoro-5-[2-(4-fluoro-benzylamino)-4-(2,2,2-trifluoro-ethylamino)-pyrido[3,2-d]pyrimidin-6-yl]-benzenesulfonamide] | > 25 µM | < 0.1 µM
10 | NS(=O)(=O)c1ccc(CNc2nc(NCC(F)(F)F)c3nc(-c4ccc(F)c(S(N)(=O)=O)c4)ccc3n2)cc1 [Example 225, 2-Fluoro-5-[2-(4-sulfamoyl-benzylamino)-4-(2,2,2-trifluoro-ethylamino)-pyrido[3,2-d]pyrimidin-6-yl]-benzenesulfonamide] | > 25 µM | < 0.1 µM
11 | CCOc1nc(NCc2ccc(S(N)(=O)=O)cc2)nc2ccc(-c3ccc(NC(=O)[C@@H](N)[C@H](C)O)cc3)nc12 [Example 226, 2-Amino-N-{4-[4-ethoxy-2-(4-sulfamoyl-benzylamino)-pyrido[3,2-d]pyrimidin-6-yl]-phenyl}-3-hydroxy-butyramide] | > 25 µM | < 0.1 µM
12 | CCOc1nc(NCc2ccc(S(N)(=O)=O)cc2)nc2ccc(-c3ccc(N4CC(O)CC4=O)cc3)nc12 (stereo not drawn) [Example 227, 4-({4-Ethoxy-6-[4-(4-hydroxy-2-oxo-pyrrolidin-1-yl)-phenyl]-pyrido[3,2-d]pyrimidin-2-ylamino}-methyl)-benzenesulfonamide] | > 25 µM | < 0.1 µM
13 | NS(=O)(=O)c1ccc(CNc2nc(Nc3ccc(-n4cncn4)cc3)c3nc(-c4ccc(F)cc4)ccc3n2)cc1 [Example 228, 4-{[6-(4-Fluoro-phenyl)-4-(4-[1,2,4]triazol-1-yl-phenylamino)-pyrido[3,2-d]pyrimidin-2-ylamino]-methyl}-benzenesulfonamide] | < 5 µM | < 0.1 µM
14 | NS(=O)(=O)c1ccc(CNc2nc(Nc3cccc(F)c3)c3nc(-c4ccc(F)cc4)ccc3n2)cc1 [Example 229, 4-{[6-(4-Fluoro-phenyl)-4-(3-fluoro-phenylamino)-pyrido[3,2-d]pyrimidin-2-ylamino]-methyl}-benzenesulfonamide] | < 5 µM | < 0.1 µM
15 | CS(=O)(=O)Nc1cc(-c2ccc3nc(NCc4ccc(S(N)(=O)=O)cc4)nc(NCC(F)(F)F)c3n2)ccc1F [Example 230, 4-{[6-(4-Fluoro-3-methanesulfonylamino-phenyl)-4-(2,2,2-trifluoro-ethylamino)-pyrido[3,2-d]pyrimidin-2-ylamino]-methyl}-benzenesulfonamide] | 5 to 25 µM | < 0.1 µM
16 | NS(=O)(=O)c1ccc(CNc2nc(NCC(F)(F)F)c3nc(-c4ccc(F)c(NS(=O)(=O)C5CC5)c4)ccc3n2)cc1 [Example 231, 4-{[6-(3-Cyclopropanesulfonylamino-4-fluoro-phenyl)-4-(2,2,2-trifluoro-ethylamino)-pyrido[3,2-d]pyrimidin-2-ylamino]-methyl}-benzenesulfonamide] | > 25 µM | < 0.1 µM
17 | NS(=O)(=O)c1ccc(CNc2nc(NCC(F)(F)F)c3nc(-c4cccc(S(N)(=O)=O)c4)ccc3n2)cc1 [Example 232, 3-[2-(4-sulfamoyl-benzylamino)-4-(2,2,2-trifluoro-ethylamino)-pyrido[3,2-d]pyrimidin-6-yl]-benzenesulfonamide] | > 25 µM | < 0.1 µM
18 | NS(=O)(=O)c1ccc(CNc2nc(NCC(F)(F)F)c3nc(-c4ccc(F)c(Cl)c4)ccc3n2)cc1 [Example 233, 4-{[6-(3-Chloro-4-fluoro-phenyl)-4-(2,2,2-trifluoro-ethylamino)-pyrido[3,2-d]pyrimidin-2-ylamino]-methyl}-benzenesulfonamide] | 5 to 25 µM | < 0.1 µM
19 | NS(=O)(=O)c1ccc(CNc2nc(OC3CC3)c3nc(-c4ccc(F)cc4)ccc3n2)cc1 [Example 234, 4-{[4-Cyclopropoxy-6-(4-fluoro-phenyl)-pyrido[3,2-d]pyrimidin-2-ylamino]-methyl}-benzenesulfonamide] | 5 to 25 µM | < 0.1 µM
20 | NS(=O)(=O)c1ccc(CNc2nc(Oc3cccc(F)c3)c3nc(-c4ccc(F)cc4)ccc3n2)cc1 [Example 235, 4-{[4-(3-Fluoro-phenoxy)-6-(4-fluoro-phenyl)-pyrido[3,2-d]pyrimidin-2-ylamino]-methyl}-benzenesulfonamide] | 5 to 25 µM | < 0.1 µM
21 | COCCOc1nc(NCc2ccc(S(N)(=O)=O)cc2)nc2ccc(-c3ccc(F)c(Cl)c3)nc12 [Example 236, 4-{[6-(3-Chloro-4-fluoro-phenyl)-4-(2-methoxy-ethoxy)-pyrido[3,2-d]pyrimidin-2-ylamino]-methyl}-benzenesulfonamide] | 5 to 25 µM | < 0.1 µM
22 | COCCOc1nc(NCc2ccc(S(N)(=O)=O)cc2)nc2ccc(-c3ccc(F)cc3)nc12 [Example 237, 4-{[6-(4-Fluoro-phenyl)-4-(2-methoxy-ethoxy)-pyrido[3,2-d]pyrimidin-2-ylamino]-methyl}-benzenesulfonamide] | < 5 µM | < 0.1 µM
23 | NS(=O)(=O)c1cccc(CNc2nc(NCC(F)(F)F)c3nc(-c4ccc(F)cc4)ccc3n2)c1 [Example 238, 3-{[6-(4-Fluoro-phenyl)-4-(2,2,2-trifluoro-ethylamino)-pyrido[3,2-d]pyrimidin-2-ylamino]-methyl}-benzenesulfonamide] | < 5 µM | < 0.1 µM
24 | Fc1ccc(-c2ccc3nc(NCc4ccc(N5CCCC5)cc4)nc(NCC(F)(F)F)c3n2)cc1 [Example 239, 6-(4-Fluoro-phenyl)-N2-(4-pyrrolidin-1-yl-benzyl)-N4-(2,2,2-trifluoro-ethyl)-pyrido[3,2-d]pyrimidine-2,4-diamine] | 5 to 25 µM | < 0.1 µM
25 | CN1CCN(c2ccc(CNc3nc(NCC(F)(F)F)c4nc(-c5ccc(F)cc5)ccc4n3)cc2)CC1 [Example 240, 6-(4-Fluoro-phenyl)-N2-[4-(4-methyl-piperazin-1-yl)-benzyl]-N4-(2,2,2-trifluoro-ethyl)-pyrido[3,2-d]pyrimidine-2,4-diamine] | < 5 µM | < 0.1 µM
26 | CS(=O)(=O)Nc1ccc(CNc2nc(NCC(F)(F)F)c3nc(-c4ccc(F)cc4)ccc3n2)cc1 [Example 241, N-(4-{[6-(4-Fluoro-phenyl)-4-(2,2,2-trifluoro-ethylamino)-pyrido[3,2-d]pyrimidin-2-ylamino]-methyl}-phenyl)-methanesulfonamide] | 5 to 25 µM | < 0.1 µM
27 | CN(C)C(=O)c1ccc(CNc2nc(NCC(F)(F)F)c3nc(-c4ccc(F)cc4)ccc3n2)cc1 [Example 242, 4-{[6-(4-Fluoro-phenyl)-4-(2,2,2-trifluoro-ethylamino)-pyrido[3,2-d]pyrimidin-2-ylamino]-methyl}-N,N-dimethyl-benzamide] | > 25 µM | < 0.1 µM
